Measurements as given in patent US11998028B2, “Polypeptide for hydrolytic cleavage of zearalenone and/or zearalenone derivatives, isolated polynucleotide thereof as well as a polypeptide containing an additive, use of same as well as a process” (priority 2013, dated 2024).

Assays:
estrogenic effect = conditions: cited from earlier work
[1] = system: polypeptide (hydrolase / zonase) with sequence ID no. 1, C-terminal 6×His tag; experiment: Enzyme kinetics of ZEN hydrolysis to HZEN, photometric at 315 nm; format: biochemical; conditions: ZEN substrate, 50 mM Tris-HCl pH 8.2, 32° C.
Description: The soluble cell lysate in the case of E. coli and/or the culture supernatant in the case of P. pastoris was/were used for determination of the catalytic properties of the polypeptides. To determine the KM value, vmax, kcat and the specific activity, the polypeptides were selectively enriched chromatographically by standard methods over nickel-Sepharose columns. The determination of the protein concentration was performed by means of standard methods, either being calculated by the BCA method (Pierce BCA Protein Assay KitProd #23225) or preferably photometrically with the specific extinction coefficients for the respective proteins that are available online with the ProtParam program at http://web.expasy.org/protparam (Gasteiger E. et al.; Protein Identification and Analysis Tools on the ExPASy Server, in John M. Walker (ed): The Proteomics Protocols Handbook, Humana Press, 2005, pp. 571-607).
The preparation, enrichment and purification of the polypeptides and/or variants thereof were performed as described in example 1. Degradation of ZEN to HZEN was measured on the basis of the reduction in absorption at the wavelength of 315 nm. […] The extinction coefficients have a strong dependence on pH and therefore the activity must always be measured precisely at the same pH and preferably also in the same matrix. The measurements were performed in a 50 mM Tris-HCl pH=8.2 buffer solution in quartz cuvettes in a wavelength range of 200 to 2500 nm in a UV-VIS photometer (Hitachi U-2001) at 32° C.
A 2.08 mM ZEN solution (40 vol % ACN+60 vol % H2O) was used as the ZEN substrate stock solution. To prepare this solution, ZEN in crystalline form (Biopure Standard from Romer Labs, article no. 001109, purity at least 98%) was weighed and dissolved accordingly. The ZEN substrate dilutions (0.79 μM, 1.57 μM, 2.36 μM, 3.14 μM, 4.71 μM, 6.28 μM, 7.85 μM, 9.42 μM, 10.99 μM, 12.56 μM, 14.13 μM, 15.71 μM, 17.28 μM and 18.85 μM) were prepared with 50 mM Tris-HCl pH=8.2. The polypeptide solutions were diluted to a final concentration of approximately 70 ng/mL using 50 mM Tris-HCl buffer pH=8.2. The ZEN substrate dilutions were preheated to 32° C. in a water bath.
100 μL portions of the respective ZEN substrate dilution were mixed with 0.2 μL polypeptide solution, and the absorption was measured for 5 minutes, whereupon each combination of polypeptide solution and ZEN substrate dilution was measured at least twice.
Taking into account the extinction coefficients of ZEN and HZEN, the reaction rate was calculated for each substance concentration on the basis of the slope in the absorption over time.
The designations “KM value” or “Michaelis-Menten constant” relate to a parameter for describing the enzymatic affinity of the units μM or mM, which are calculated with the help of the linear Hanes plots according to H. Bisswang (2002, Enzyme Kinetics, ISBN 3-527-30343-X, page 19), wherein the function “enzyme kinetics, single substrate” in the SigmaPlot 12.0 program is preferably used for this purpose. The designations “catalytic constant of the enzyme reaction” or “kcat value” relate to a parameter for describing the conversion rate of a polypeptide and/or enzyme, which is given in s^−1 and is preferably calculated with the help of the “enzyme kinetic, single substrate” function of the SigmaPlot 12.0 program. The “maximum enzyme rate” or “vmax value” is given in units of μM/s or mM/s and is determined with the help of the linear Hanes plot by analogy with the KM value, wherein the function “enzyme kinetic, single substrate” of the SigmaPlot 12.0 program is preferably used for this.
The raw data for determination of the enzyme parameters KM, vmax, kcat and the specific activity are given below for the polypeptide having the sequence ID no. 1.

estrogen receptor = conditions: cited from earlier work
[2] = relatively low acute toxicity; cited from earlier work
[3] = system: mammalian animals, in particular pigs; conditions: cited from earlier work
pigs = conditions: cited from earlier work
cattle = conditions: cited from earlier work
[4] = cited from earlier work

## C[C@H]1CCCC(=O)CCCCCc2cc(O)cc(O)c2C(=O)O1 [ZAN, (11S)-15,17-dihydroxy-11-methyl-12-oxabicyclo-[12.4.0]octadeca-1(18),14,16-triene-7,13-dione]
Estrogenic effect
  estrogenic effect compared with ZEN: much stronger estrogenic effect than ZEN

## C[C@H]1CCCC(=O)CCC/C=C/c2cc(O)cc(O)c2C(=O)O1 [ZEN, (2E,11S)-15,17-dihydroxy-11-methyl-12-oxabicyclo[12.4.0]octadeca-1(18),2,14,16-tetraene-7,13-dione]
[1]; Average
  Km: 0.204 µM
  Vmax: 0.009343 µM/s
  kcat: 5.12 s⁻¹
[1]; Measurement 1
  Km: 0.217 µM
  Vmax: 0.00993 µM/s
  kcat: 5.44 s⁻¹
[1]; Measurement 2
  Km: 0.19 µM
  Vmax: 0.008756 µM/s
  kcat: 4.79 s⁻¹
Estrogen receptor
  binding to the estrogen receptor: binds to the estrogen receptor
[2]
  oral LD50: up to 20,000 mg/kg body weight
[3]
  ZEN concentration in feed resulting in developmental disorders: more than 0.5 ppm
pigs
  ZEN concentration that can result in hyperestrogenicity: more than 1.5 ppm
cattle
  ZEN concentration blamed for spontaneous abortions: 12 ppm
[4]; in particular gastric mucosa and oral mucosa
  absorption through the mucous membranes: absorbed rapidly
[4]; oral administration
  time after oral administration at which ZEN can be detected in blood: 30 min

## C[C@H]1CCC[C@H](O)CCCCCc2cc(O)cc(O)c2C(=O)O1 [α-ZAL, (7R,11S)-7,15,17-trihydroxy-11-methyl-12-oxabicyclo[12.4.0]octa-deca-1(18),14,16-trien-13-one]
Estrogenic effect
  estrogenic effect compared with ZEN: much stronger estrogenic effect than ZEN

## C[C@H]1CCC[C@H](O)CCC/C=C/c2cc(O)cc(O)c2C(=O)O1 [α-ZEL, (2E,7R,11S)-7,15,17-trihydroxy-11-methyl-12-oxabicyclo[12.4.0]-octadeca-1(18),2,14,16-tetraen-13-one]
Estrogenic effect
  estrogenic effect compared with ZEN: much stronger estrogenic effect than ZEN
